The values below come from the NIST ThermoML archive (doi:10.1016/j.jct.2013.03.001).

Series [1] is described as follows: Molar enthalpy of transition or fusion. Particulars: Crystal; DSC.
For series [2] the following is noted: Crystal; DTA.
Series [3] is described as follows: molar enthalpy of vaporization or sublimation. Particulars: 298.15 K; Crystal; Static calorimetry.

Structures are written as SMILES. Numbers after ± are expanded uncertainties.

On to `O=c1cccc(Cl)[nH]1` [2(1H)-pyridinone, 6-chloro-], for which, in series [1], the “Molar enthalpy of transition or fusion” value came to 4.39 ± 0.112 kcal/mol. Further, the Normal melting temperature in series [2] was determined as 128.46 ± 0.39 °C. Also, the molar enthalpy in series [3] turned out to be 21.9 ± 0.311 kcal/mol.

In the case of `Oc1cccnc1Cl` [2-chloro-3-hydroxypyridine], the “Molar enthalpy of transition or fusion” value in series [1] turned out to be 6.39 ± 0.148 kcal/mol. Moreover, the Normal melting temperature in series [2] is 169.99 ± 0.41 °C. The molar enthalpy in series [3] stood at 21.3 ± 0.43 kcal/mol.

Turning to `Oc1cncc(Cl)c1` [3-chloro-5-hydroxypyridine], the “Molar enthalpy of transition or fusion” value in series [1] is 5.16 ± 0.139 kcal/mol. The Normal melting temperature in series [2] stood at 159.76 ± 0.41 °C. In addition, the molar enthalpy in series [3] worked out at 23.8 ± 0.478 kcal/mol.
